Measured values published in PMC4747952, “Development of TASP0410457 (TASP457), a novel dihydroquinolinone derivative as a PET radioligand for central histamine H3 receptors” (EJNMMI Research, 2016).

Columns and labels:
rat H3R = biological target: T1, rat H3R (Rattus norvegicus, UniProt Q9QYN8); assay: In vitro binding to H3Rs, rat cerebral cortex membranes, [^3H]N-α-methylhistamine; conditions: 1 nM [^3H]N-α-methylhistamine, geometric mean, n = 3, read-out: Affinity for H3Rs Rat, IC50
T1 construct: Rat cerebral cortex and monkey frontal cortex were dissected; from tissue; host or cells: rat cerebral cortex membranes
Description: Rat cerebral cortex and monkey frontal cortex were dissected, homogenized with 50 mM Tris buffer (pH 7.4) containing 5 mM EDTA and Protease Inhibitor Cocktail Tablets (Roche Diagnostics, Indianapolis, IN) and centrifuged at 48,000×g for 15 min at 4 °C. The pellets were then suspended in binding buffer (50 mM Tris containing 5 mM EDTA, pH 7.4) and stored at −80 °C as membrane preparations.
The membrane preparations were thawed and incubated in the binding buffer containing 0.1 % bovine serum albumin, 1 nM [^3H]N-α-methylhistamine (PerkinElmer, Waltham, MA) with various concentrations of a dihydroquinolinone derivative (i.e., test compound) at 25 °C for 1 h. The reaction was terminated by rapid filtration through 96-well GF/C filter plates (PerkinElmer) presoaked with 0.5 % polyethyleneimine (Wako, Osaka, Japan). After washes with ice-cold binding buffer, the plates were dried and filled with Microscint-o (PerkinElmer). The radioactivity retained on the filters was counted using a TopCount NXT (PerkinElmer). Total and nonspecific radioligand binding was determined by reaction without and with 10 μM thioperamide and clobenpropit, respectively. The specific radioligand binding was then calculated by subtracting the nonspecific binding from the total binding. The IC50 value for inhibition of the radioligand binding by the test compound was determined using a nonlinear fit of the concentration-response curve for each test compound using SAS 9.2 (SAS Institute Inc., Cary, NC). Data were expressed as the geometric means of IC50 values from three independent experiments run in duplicate.

[1] = Ex vivo pharmacokinetic assessment in the rat brain using LC-MS/MS; conditions: 10 μg/kg intravenous, n = 3
Description: The rats were decapitated at 5, 15, 30, 60, and 120 min after intravenous administration of TASP0390136, TASP0390174, TASP0410426, TASP0410427, TASP0410457, or TASP0434988 at a dose of 10 μg/kg. The cerebellum and forebrain, including the medial prefrontal and cingulate cortices and anterior striatum, were dissected and homogenized with four volumes of distilled water. The homogenates were protein-precipitated with methanol/acetonitrile (1:9) and were centrifuged at 3974×g for 10 min at 4 °C. The resultant supernatants were injected into an HPLC (Shimadzu-20AD, Shimadzu, Kyoto, Japan) and a tandem mass spectrometer (API4000, AB SCIEX, Framingham, MA) using a Shim-pak XR-ODS column (3.0 × 30 mm, Shimadzu) at 50 °C. TASP0410457 was eluted with a mobile phase consisting of 10 mM of ammonium acetate/acetonitrile with a linear gradient at a flow rate of 1.3 mL/min, and ammonium formate instead of ammonium acetate was used for eluting the other five compounds. […] The eluted TASP0390136, TASP0390174, TASP0410426, TASP0410427, TASP0410457, and TASP0434988 were ionized using an electrospray interface and were detected using reaction monitoring of the transitions of m/z 395 to 91, 395 to 98, 413 to 98, 425 to 98, 408 to 138, and 407 to 138, respectively. A dihydroquinolinone compound (6-[(1-cyclobutylpiperidin-4-yl)oxy]-1-(3,5-difluorophenyl)-3,4-dihydroquinolin-2(1H)-one) was used as an internal standard for all assays. The lower qualification limit for TASP0410457 was 0.05 ng/g tissue, and the limit for the other five compounds was 0.15 ng/g tissue. Data were expressed as standardized uptake values (SUVs) calculated as follows: SUV=tissueconcentrationg/g×bodyweightg/injecteddoseg

H3R = biological target: T2, H3R (Rattus norvegicus, UniProt Q9QYN8); assay: PET imaging of rat brains; type: in vivo; conditions: for cerebellar SUV at 15 min after radioligand injection: mean ± S.D.
T2 construct: from tissue; host or cells: brain of living Sprague-Dawley rats
Description: Six-week-old male Sprague-Dawley rats were purchased from Japan SLC (Shizuoka, Japan). PET scans were performed using a microPET Focus 220 small-animal scanner (Siemens Medical Solutions USA, Knoxville, TN). The rats were anesthetized with 1.5–2 % isoflurane during the imaging session, while their heart rate and blood oxygen saturation were monitored by pulse oximeter (CANL-425SVA; Med Associates, St. Albans, VT). Body temperature was kept at 37 °C with a heating pad (BWT-100; Bio Research Center, Aichi, Japan). Following the transmission scans for attenuation correction using a ^68Ge-^68Ga point source, emission scans were performed for 90 min in 3D list-mode with an energy window of 350–750 keV, immediately after the intravenous injection of each radioligand. Mean ± S.D. of the injected radioactivity of [^11C]TASP0410457, [^11C]TASP0434988, and [^11C]TASP0390136 was 119 ± 26 MBq, 132 ± 34 MBq, and 124 ± 17 MBq, respectively (n = 3–5). Mean ± S.D. of the mass doses of [^11C]TASP0410457, [^11C]TASP0434988, and [^11C]TASP0390136 was 2.4 ± 1.2 μg/kg, 1.9 ± 0.4 μg/kg, and 4.2 ± 1.6 μg/kg, respectively (n = 3–5).
To assess the specificity of radioligand binding, thioperamide was injected intravenously at a dose of 10 mg/kg at 30 s before the injection of each radioligand.
All list-mode data were sorted into 3D sinograms, which were then Fourier rebinned into 2D sinograms (frames: 1 min × 4, 2 min × 8 and 5 min × 14). Images were reconstructed using 2D-filtered back-projection with a 0.5-mm Hanning filter.
PET image and magnetic resonance imaging (MRI) template were co-registered using PMOD software (PMOD version 3.206; Zurich, Switzerland) according to the following procedure as in our previous works: Outline of the whole brain and positions of eyes in PET images at an early phase of the scan were initially matched to those in MRI images, and then further translations and rotations of PET images were manually performed for fine alignments. Finally, parameters for the co-registration were applied to the entire dynamic PET data. Regions of interest (ROIs) were placed on the striatum, hippocampus, and cerebellum using PMOD software with reference to the MRI template as described elsewhere. The tissue time-activity curves (TACs) for these ROIs were generated by calculating the SUV for each time frame as follows: SUV=radioactivityBq/g×bodyweightg/injectedradiotracerdoseBq
The binding potentials relative to the non-displaceable uptake (BPND) in the striatum and hippocampus were estimated using the simplified reference tissue model (SRTM) with PMOD software using the cerebellum as a reference region, as the rat cerebellum is devoid of H3R [26].

[2] = Radiochemical stability in the final formulation; type: physicochemical; conditions: at 40 min after the end of radiosynthesis
Description: [^11C]TASP0390136, [^11C]TASP0410457, and [^11C]TASP0434988 were synthesized as shown in Fig. 1a–c (detailed procedures are described in Additional file 1: Supplemental methods) using a homemade automated synthesis system. The radiochemical purities and specific activities of the radioligands, which were analyzed as described in Additional file 1: Supplemental Methods, along with their radiochemical yields and average synthesis times, are summarized in Table 1. Analytical HPLC chromatogram of each radioligand is shown in Additional file 2-4: Figures S1-S3. The radiochemical stabilities of [^11C]TASP0410457 and [^11C]TASP0434988 in the final formulation were >99 % at 1 h and 40 min, respectively, after the end of radiosynthesis.

central H3Rs = assay: Receptor occupancy assay, [^11C]TASP0410457-PET, Lassen's plot; type: in vivo, monkey
Description: Occupancy of central H3Rs by ciproxifan, a selective antagonist/inverse agonist, was quantified by [^11C]TASP0410457-PET scans of an anesthetized monkey with arterial blood sampling. […] Receptor occupancy of ciproxifan was determined using Lassen’s plot without any reference regions using the following equation: VT^Baseline−VT^Ciproxifan=OccVT^Baseline−VND where VT^Baseline and VT^Ciproxifan are the regional VT values at baseline and in the ciproxifan challenge, respectively, VND is the non-displaceable distribution volume, and Occ is the occupancy.

[3] = thioperamide predosing 10 mg/kg
[4] = SRTM, cerebellum as reference region

T2 sequence (Q9QYN8 whole entry): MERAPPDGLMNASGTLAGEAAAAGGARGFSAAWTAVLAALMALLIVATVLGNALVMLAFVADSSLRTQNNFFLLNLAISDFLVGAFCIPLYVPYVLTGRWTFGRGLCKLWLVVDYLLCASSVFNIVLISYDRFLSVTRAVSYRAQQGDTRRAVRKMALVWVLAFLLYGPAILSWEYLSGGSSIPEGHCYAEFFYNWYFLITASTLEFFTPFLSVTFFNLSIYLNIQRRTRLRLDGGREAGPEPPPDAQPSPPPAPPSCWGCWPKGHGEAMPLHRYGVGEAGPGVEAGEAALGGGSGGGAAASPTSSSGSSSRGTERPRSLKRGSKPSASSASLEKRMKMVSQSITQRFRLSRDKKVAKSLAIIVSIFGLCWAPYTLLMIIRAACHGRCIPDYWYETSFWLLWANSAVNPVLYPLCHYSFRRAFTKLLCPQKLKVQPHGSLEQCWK
T1 sequence (Q9QYN8 whole entry): as above

SMILES | IC50 (rat H3R) | Mean peak concentration in the forebrain expressed as SUV [1] | cerebellar SUV at 15 min after radioligand injection (H3R; baseline) | cerebellar SUV at 15 min after radioligand injection (H3R; [3]) | further results
COc1cccc(N2C(=O)CCc3cc(OCCCN4CCC[C@H]4C)ccc32)c1 [TASP0390174, 1-(3-methoxyphenyl)-6-{3-[(2R)-2-methylpyrrolidin-1-yl]propoxy}-3,4-dihydroquinolin-2(1H)-one] | < 3 nM | 0.28 SUV |  |  | 
COc1cc(F)cc(N2C(=O)CCc3cc(OCCCN4CCC[C@H]4C)ccc32)c1 [TASP0410426, 1-(3-fluoro-5-methoxyphenyl)-6-{3-[(2R)-2-methylpyrrolidin-1-yl]propoxy}-3,4-dihydroquinolin-2(1H)-one] | < 3 nM | 0.30 SUV |  |  | 
COc1ccc(N2C(=O)CCc3cc(OCCCN4CCC[C@H]4C)ccc32)c(OC)c1 [TASP0410427, 1-(2,4-dimethoxyphenyl)-6-{3-[(2R)-2-methylpyrrolidin-1-yl]propoxy}-3,4-dihydroquinolin-2(1H)-one] | < 3 nM | 0.10 SUV |  |  | 
C[C@@H]1CCCN1CCCOc1ccc2c(c1)CCC(=O)N2c1ccc(O[11CH3])cc1 [[^11C]TASP0390136] |  |  | 0.33 ± 0.01 | 0.30 ± 0.03 | 
[11CH3]Oc1ccc(N2C(=O)CCc3cc(OC4CCN(C5CCC5)CC4)ccc32)cc1 [[^11C]TASP0434988] |  |  | 0.64 ± 0.04 | 0.59 ± 0.02 | striatal and hippocampal peak SUVs lower than those for [^11C]TASP0410457 (H3R): 20–25%; BPND, Hippocampus (H3R; [4]): 0.36 ± 0.11; BPND, Striatum (H3R; [4]): 0.92 ± 0.21; time for specific binding to reach a pseudo-equilibrium state (H3R; target-to-reference ratios, after intravenous injection): ≤ 15 min; radiochemical stability in the final formulation [2]: > 99%
O=C(c1ccc(OCCCc2cnc[nH]2)cc1)C1CC1 [ciproxifan, reference compound] |  |  |  |  | receptor occupancy (central H3Rs; 3 mg/kg intravenously, 10 min before [^11C]TASP0410457, anesthetized monkey, Lassen's plot): ~ 75%; adverse effects preventing completion of PET imaging (central H3Rs; 10 mg/kg, monkey, anesthetized with isoflurane): profound effects on heart rates and body motions
